Eight molecules from patent US9309242B2, “Substituted pyrido[2,3-b]pyrazines as FGFR kinase inhibitors” (priority 2011, dated 2016) can be followed below.

The target of one assay is FGFR1 (h) (Homo sapiens, UniProt P11362). Put plainly: FGFR1 (enzymatic assay), TR-FRET. To be noted: read-out: FGFR 1 pIC50 (converted). In kind it is biochemical. In general terms: TR-FRET usually uses a lanthanide donor and a delayed reading to cut background.
A further assay concerns the target FGFR3 (h) (Homo sapiens, UniProt P22607). Put plainly: FGFR3 (enzymatic assay), TR-FRET. The class given is biochemical. To be noted: read-out: FGFR 3 pIC50 (converted). The text has this: Time-Resolved Fluorescence Resonance Energy Transfer (TR-FRET) signal (ex340 nm.
A further assay deals with FGFR4 (h) (Homo sapiens, UniProt P22455). Put plainly: FGFR4 (enzymatic assay), TR-FRET. In kind it is biochemical. As to conditions: FGFR 4 pIC50, enzymatic assay.
A further assay addresses KDR (h) (Homo sapiens, UniProt P35968). In words: KDR (VEGFR2) (enzymatic assay), TR-FRET. To be noted: read-out: VEGFR 2 (KDR) pIC50 (converted). In kind it is biochemical. The procedure, abridged:
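Phosphorylation of biotinylated Flt3 peptide (500 nM) by 150 ng/ml enzyme was measured at 3 μM ATP in Mn2+-containing HEPES buffer, pH 7.5, over 120 min at room temperature. Detection used Eu-anti-P-Tyr and SA-XL-665 TR-FRET.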

The target of assay [1] is T1, Ba/F3-FGFR1-transfected cells (Homo sapiens, UniProt P11362).
T1 construct: BAF3-FGFR1 (MIN IL3) pIC50; other: minus IL3
In words: Ba/F3-FGFR1 (minus IL3) cellular proliferation assay, Alamar Blue. The class given is cell-based. The essentials:
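Compound is dispensed first, then FGFR1-transfected Ba/F3 cells are added at 20000 per well in phenol red-free RPMI-1640 containing 10% FBS. After 24 h at 37 °C, Alamar Blue is added for 4 h and fluorescence is measured at 540/590 nm.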
(In general: Alamar Blue is a resazurin reagent that responds to reducing activity.)

Assay [2] has as its system Ba/F3-FGFR1-transfected cells. Put plainly: Ba/F3-FGFR1 (plus IL3) cellular proliferation assay, counterscreen with 10 ng/ml murine IL3. The class given is cell-based. As to conditions: plus IL3 (10 ng/ml murine IL3, counterscreen); read-out: BAF3-FGFR1 (PLUS IL3) pIC50 (converted). The essentials:
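Proliferation read-out: resazurin-based Alamar Blue fluorescence (540/590 nm) after 4 h, following 24 h compound treatment of 20000 Ba/F3-FGFR1 cells per well in 10% FBS RPMI at 37° C. IL3 counterscreen used the same protocol plus 10 ng/ml murine IL3.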
(In general: A counterscreen serves to expose hits that act by an unwanted route or on another target.)

In assay [3] the target is T2, Ba/F3-FGFR3-transfected cells (Homo sapiens, UniProt P22607).
T2 construct: BAF3-FGFR3 (MIN IL3) pIC50; other: minus IL3
In words: Ba/F3-FGFR3 (minus IL3) cellular proliferation assay, Alamar Blue. In kind it is cell-based. The procedure, abridged: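 Compound dilutions were dispensed first, then 20000 FGFR3-transfected Ba/F3 cells per well in serum-containing RPMI-1640 were added. After 24 h incubation at 37° C, Alamar Blue was applied for 4 h before relative fluorescence units were recorded. In the minus-IL3 format cells grow without cytokine; the other format contains 10 ng/ml murine IL3.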

Assay [4] has as its system Ba/F3-KDR-transfected cells. In words: Ba/F3-KDR (plus IL3) cellular proliferation assay, counterscreen with 10 ng/ml murine IL3. As to conditions: plus IL3 (10 ng/ml murine IL3, counterscreen); read-out: BAF3-KDR (PLUS IL3) pIC50 (converted). In kind it is cell-based. The procedure, abridged:
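Compound in DMSO was dispensed first, then transfected cells in serum-containing RPMI-1640 were added. After a 24 h incubation, viability was gauged by resazurin reduction over 4 h, measured as fluorescence.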

For assay [5], the target named is Ba/F3-FGFR4-transfected cells (Homo sapiens, UniProt P22455). In words: Ba/F3-FGFR4 cellular proliferation assay, Alamar Blue. The class given is cell-based. The procedure, abridged:
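Step one: compound dilutions in DMSO are sprayed into wells. Step two: transfected Ba/F3-FGFR4 cells are added at 20000 per well and incubated 24 hours at 37° C. Step three: Alamar Blue is added for 4 hours and relative fluorescence is measured.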

The mark [6] stands for this setting: average values if tested multiple times.

pIC50: −log10 of the molar value. Counter-ions that a name gives are not always drawn. Like-named read-outs stand apart in the source and are kept apart here. Bounds are passed on as bounds.

Broadly, the pIC50 is the IC50 on a negative log10 scale, so that one unit is a factor of ten.

Chain of Ba/F3-FGFR4-transfected cells (P22455 whole entry, change not shown): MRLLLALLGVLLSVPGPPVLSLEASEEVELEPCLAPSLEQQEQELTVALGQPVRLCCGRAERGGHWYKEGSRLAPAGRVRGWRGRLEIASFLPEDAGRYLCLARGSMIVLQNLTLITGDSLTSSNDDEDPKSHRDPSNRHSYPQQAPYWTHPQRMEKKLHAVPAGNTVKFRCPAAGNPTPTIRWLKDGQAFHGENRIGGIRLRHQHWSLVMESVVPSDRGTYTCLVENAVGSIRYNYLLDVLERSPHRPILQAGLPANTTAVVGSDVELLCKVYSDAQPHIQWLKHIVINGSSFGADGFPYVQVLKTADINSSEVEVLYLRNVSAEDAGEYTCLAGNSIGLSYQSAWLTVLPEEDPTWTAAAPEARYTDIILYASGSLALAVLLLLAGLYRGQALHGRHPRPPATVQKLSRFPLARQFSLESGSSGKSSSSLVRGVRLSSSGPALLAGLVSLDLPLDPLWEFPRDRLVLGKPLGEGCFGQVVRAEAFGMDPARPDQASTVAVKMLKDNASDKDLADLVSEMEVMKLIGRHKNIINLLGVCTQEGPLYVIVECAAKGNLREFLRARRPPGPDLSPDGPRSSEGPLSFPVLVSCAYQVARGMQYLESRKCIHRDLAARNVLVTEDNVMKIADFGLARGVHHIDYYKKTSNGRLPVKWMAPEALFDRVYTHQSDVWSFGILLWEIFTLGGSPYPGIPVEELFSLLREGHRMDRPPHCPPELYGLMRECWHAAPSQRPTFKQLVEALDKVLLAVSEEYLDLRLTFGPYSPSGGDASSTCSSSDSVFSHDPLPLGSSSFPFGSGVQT
Chain of FGFR1 (h) (P11362 22-822): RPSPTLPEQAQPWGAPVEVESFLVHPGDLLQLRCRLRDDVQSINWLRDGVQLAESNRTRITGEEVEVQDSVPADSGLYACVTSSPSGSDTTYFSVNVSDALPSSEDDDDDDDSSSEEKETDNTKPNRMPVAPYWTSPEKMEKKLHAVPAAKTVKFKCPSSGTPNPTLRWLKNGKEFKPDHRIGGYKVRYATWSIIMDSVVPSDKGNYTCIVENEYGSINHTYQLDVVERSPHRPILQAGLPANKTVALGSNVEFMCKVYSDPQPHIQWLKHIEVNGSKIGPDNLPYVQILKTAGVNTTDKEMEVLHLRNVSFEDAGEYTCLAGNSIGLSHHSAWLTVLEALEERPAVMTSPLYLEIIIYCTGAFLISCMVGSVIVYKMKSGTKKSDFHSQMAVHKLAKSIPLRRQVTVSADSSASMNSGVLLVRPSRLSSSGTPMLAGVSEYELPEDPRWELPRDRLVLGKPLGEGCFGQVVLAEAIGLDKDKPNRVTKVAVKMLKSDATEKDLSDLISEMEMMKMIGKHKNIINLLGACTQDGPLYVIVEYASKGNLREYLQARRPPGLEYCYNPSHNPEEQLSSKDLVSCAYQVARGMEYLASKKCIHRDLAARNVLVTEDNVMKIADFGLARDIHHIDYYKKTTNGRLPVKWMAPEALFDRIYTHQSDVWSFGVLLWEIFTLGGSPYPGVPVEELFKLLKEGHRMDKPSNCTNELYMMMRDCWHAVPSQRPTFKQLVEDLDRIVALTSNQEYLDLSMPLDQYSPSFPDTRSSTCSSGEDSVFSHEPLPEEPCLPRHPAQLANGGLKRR
Chain of FGFR4 (h) (P22455 22-802): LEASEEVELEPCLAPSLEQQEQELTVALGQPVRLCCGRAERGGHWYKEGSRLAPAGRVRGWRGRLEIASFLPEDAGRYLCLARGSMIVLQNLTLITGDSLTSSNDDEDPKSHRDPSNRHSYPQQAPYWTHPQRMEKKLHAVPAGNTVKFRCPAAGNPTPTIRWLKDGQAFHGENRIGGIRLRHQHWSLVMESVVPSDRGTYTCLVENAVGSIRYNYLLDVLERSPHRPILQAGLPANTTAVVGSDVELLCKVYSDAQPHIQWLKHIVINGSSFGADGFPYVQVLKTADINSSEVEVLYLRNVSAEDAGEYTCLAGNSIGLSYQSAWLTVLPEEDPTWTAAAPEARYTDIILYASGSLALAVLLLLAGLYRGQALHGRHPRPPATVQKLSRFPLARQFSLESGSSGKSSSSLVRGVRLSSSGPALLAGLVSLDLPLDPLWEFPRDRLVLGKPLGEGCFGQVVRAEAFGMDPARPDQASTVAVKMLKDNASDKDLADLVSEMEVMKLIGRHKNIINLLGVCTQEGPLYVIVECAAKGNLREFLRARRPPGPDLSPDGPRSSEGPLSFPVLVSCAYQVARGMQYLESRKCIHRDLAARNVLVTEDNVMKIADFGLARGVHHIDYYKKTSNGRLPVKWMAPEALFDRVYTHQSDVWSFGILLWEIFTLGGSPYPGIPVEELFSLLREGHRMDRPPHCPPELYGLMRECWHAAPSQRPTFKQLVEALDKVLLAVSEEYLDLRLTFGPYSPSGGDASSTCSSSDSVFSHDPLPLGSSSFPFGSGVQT
T2 sequence (P22607 whole entry, change not shown): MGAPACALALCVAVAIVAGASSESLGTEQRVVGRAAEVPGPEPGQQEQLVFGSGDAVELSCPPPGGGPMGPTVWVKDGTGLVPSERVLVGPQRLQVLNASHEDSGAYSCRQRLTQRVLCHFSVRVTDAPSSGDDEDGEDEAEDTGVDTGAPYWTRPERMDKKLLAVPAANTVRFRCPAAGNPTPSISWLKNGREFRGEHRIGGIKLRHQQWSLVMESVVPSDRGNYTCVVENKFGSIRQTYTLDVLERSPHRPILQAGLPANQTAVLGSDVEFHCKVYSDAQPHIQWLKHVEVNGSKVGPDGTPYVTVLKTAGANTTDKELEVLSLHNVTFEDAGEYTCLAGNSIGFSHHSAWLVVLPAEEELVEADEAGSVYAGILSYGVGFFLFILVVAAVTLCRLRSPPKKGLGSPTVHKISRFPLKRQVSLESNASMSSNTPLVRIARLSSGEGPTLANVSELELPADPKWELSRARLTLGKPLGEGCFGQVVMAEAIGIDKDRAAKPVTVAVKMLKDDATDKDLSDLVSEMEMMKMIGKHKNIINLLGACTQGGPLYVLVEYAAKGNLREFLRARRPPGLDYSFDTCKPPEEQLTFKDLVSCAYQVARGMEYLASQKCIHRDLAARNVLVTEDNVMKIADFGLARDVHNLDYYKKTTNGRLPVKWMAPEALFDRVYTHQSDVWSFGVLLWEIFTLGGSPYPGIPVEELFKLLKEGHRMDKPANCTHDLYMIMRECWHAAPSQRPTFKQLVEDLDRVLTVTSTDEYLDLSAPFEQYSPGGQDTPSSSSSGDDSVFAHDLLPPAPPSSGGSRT
Chain of KDR (h) (P35968 20-1356): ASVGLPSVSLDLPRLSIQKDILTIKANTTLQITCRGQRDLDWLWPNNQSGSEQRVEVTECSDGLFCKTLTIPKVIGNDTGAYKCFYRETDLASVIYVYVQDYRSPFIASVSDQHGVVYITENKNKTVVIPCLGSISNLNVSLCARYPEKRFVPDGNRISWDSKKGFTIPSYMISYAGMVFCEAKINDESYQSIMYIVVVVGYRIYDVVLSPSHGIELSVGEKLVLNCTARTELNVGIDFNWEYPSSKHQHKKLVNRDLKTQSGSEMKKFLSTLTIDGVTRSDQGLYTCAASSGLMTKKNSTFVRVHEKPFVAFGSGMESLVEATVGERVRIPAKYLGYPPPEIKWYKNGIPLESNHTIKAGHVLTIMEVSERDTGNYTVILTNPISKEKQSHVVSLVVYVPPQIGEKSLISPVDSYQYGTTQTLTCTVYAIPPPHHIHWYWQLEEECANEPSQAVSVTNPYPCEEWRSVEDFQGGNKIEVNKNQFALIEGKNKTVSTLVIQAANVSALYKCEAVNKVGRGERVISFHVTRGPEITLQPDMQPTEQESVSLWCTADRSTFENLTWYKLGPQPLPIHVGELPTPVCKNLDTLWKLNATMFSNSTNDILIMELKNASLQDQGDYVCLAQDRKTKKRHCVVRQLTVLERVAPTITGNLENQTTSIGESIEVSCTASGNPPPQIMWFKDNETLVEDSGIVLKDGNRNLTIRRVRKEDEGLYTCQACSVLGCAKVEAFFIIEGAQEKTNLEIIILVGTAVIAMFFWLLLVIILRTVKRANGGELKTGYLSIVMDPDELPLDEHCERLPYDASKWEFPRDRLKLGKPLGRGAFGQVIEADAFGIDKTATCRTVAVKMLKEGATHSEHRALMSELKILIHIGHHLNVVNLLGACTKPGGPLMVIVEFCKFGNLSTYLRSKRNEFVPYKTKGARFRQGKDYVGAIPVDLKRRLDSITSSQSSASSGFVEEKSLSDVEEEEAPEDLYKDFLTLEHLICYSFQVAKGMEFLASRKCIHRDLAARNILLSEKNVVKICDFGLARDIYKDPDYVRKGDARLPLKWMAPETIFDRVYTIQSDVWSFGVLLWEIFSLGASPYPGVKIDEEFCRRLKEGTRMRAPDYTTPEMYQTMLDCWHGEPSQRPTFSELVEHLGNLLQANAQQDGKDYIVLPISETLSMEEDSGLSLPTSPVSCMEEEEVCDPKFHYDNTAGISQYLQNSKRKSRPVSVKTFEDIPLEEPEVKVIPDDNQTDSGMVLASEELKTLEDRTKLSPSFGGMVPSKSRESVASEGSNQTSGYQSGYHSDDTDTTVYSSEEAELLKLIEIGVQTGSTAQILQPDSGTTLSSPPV

For the molecule `CNCCN(c1ccc2ncc(-c3cnn(C)c3)nc2n1)c1c(Cl)ccc(OC)c1Cl` [Compound 83], the IC50 on FGFR1 (h) (setting [6]) is 75.9 nM; at FGFR3 (h) (setting [6]), 105 nM; on KDR (h) (setting [6]) it was above 1000 nM; in [2] it was above 10000 nM; in assay [4], above 10000 nM. On FGFR4 (h) (setting [6]), this molecule had a negative logarithm of the IC50 (pIC50) of 6.03. The “BAF3-FGFR1 (MIN IL3) pIC50” value in assay [1] is listed as 5.36. In assay [3], the “BAF3-FGFR3 (MIN IL3) pIC50” value is on record as around 5.66. For the same molecule, the “BAF3-FGFR4 pIC50” value in assay [5] was below 5.
`COc1cc(OC)c(F)c(N(Cc2ccn(C)n2)c2ccc3ncc(-c4cnn(C)c4)nc3n2)c1` [Compound 128]: the IC50 is 1.32 nM at FGFR1 (h); 1.05 nM at FGFR3 (h); 7.94 nM at KDR (h); above 10000 nM in [2]; above 10000 nM in assay [4]. For the same molecule, the pIC50 on FGFR4 (h) is 8.89. In [1], the “BAF3-FGFR1 (MIN IL3) pIC50” value worked out at 8.10. The “BAF3-FGFR3 (MIN IL3) pIC50” value in assay [3] was found to be 8.03. The “BAF3-FGFR4 pIC50” value in [5] was 7.12.
Regarding `COc1cc(OC)cc(N(Cc2ncc[nH]2)c2ccc3ncc(-c4cnn(C)c4)nc3n2)c1` (racemic) [24-DL-tartrate salt], the IC50 at FGFR1 (h) (setting [6]) was 0.355 nM; on FGFR3 (h) (setting [6]), 0.741 nM; on KDR (h) (setting [6]) it was 11.7 nM; in [2], above 10000 nM; in [4], above 10000 nM. The negative-log IC50 (pIC50) against FGFR4 (h) (setting [6]) was 8.95. In [1], the “BAF3-FGFR1 (MIN IL3) pIC50” value was found to be 8.47. Moreover, the “BAF3-FGFR3 (MIN IL3) pIC50” value in [3] came to 8.21. The “BAF3-FGFR4 pIC50” value in [5] came to 7.62.
Take `COc1cc(OC)cc(N(CC2CCCCO2)c2ccc3ncc(-c4cnn(C)c4)nc3n2)c1` (stereo not drawn) [Compound 129]: the IC50 on FGFR1 (h) was 3.47 nM; at FGFR3 (h), 2.69 nM; on KDR (h) it was 58.9 nM; in assay [2], above 10000 nM; in [4], above 10000 nM. Also, on FGFR4 (h), the negative logarithm of the IC50 (pIC50) was 8.11. In [1], the “BAF3-FGFR1 (MIN IL3) pIC50” value is given as around 7.15. Besides, the “BAF3-FGFR3 (MIN IL3) pIC50” value in [3] was around 7.15. For the same molecule, in assay [5], the “BAF3-FGFR4 pIC50” value came out at 6.36.
In the case of `COc1cc(OC)c(F)c(N(CC2CCC(=O)N2)c2ccc3ncc(-c4cnn(C)c4)nc3n2)c1F` (stereo not drawn) [Compound 192], the IC50 on FGFR1 (h) (setting [6]) is 1.15 nM; on FGFR3 (h) (setting [6]), 1.55 nM; on KDR (h) (setting [6]), 13.8 nM; in assay [2], above 10000 nM; in assay [4], above 10000 nM. Besides, on FGFR4 (h) (setting [6]), the pIC50 was 8.68. For the same molecule, the “BAF3-FGFR1 (MIN IL3) pIC50” value in [1] is listed as 7.73. Further, the “BAF3-FGFR3 (MIN IL3) pIC50” value in assay [3] came to 7.78. Besides, the “BAF3-FGFR4 pIC50” value in assay [5] amounted to 7.01.
Take `COc1cc(OC)c(F)c(N(Cc2ncc[nH]2)c2ccc3ncc(-c4cnn(C)c4)nc3n2)c1` [Compound 23]: the IC50 was 0.741 nM on FGFR1 (h) (setting [6]); 1.07 nM at FGFR3 (h) (setting [6]); 7.08 nM on KDR (h) (setting [6]); above 10000 nM in assay [2]; above 10000 nM in assay [4]. This molecule also showed a pIC50 on FGFR4 (h) (setting [6]) of 9.00. For the same molecule, the “BAF3-FGFR1 (MIN IL3) pIC50” value in assay [1] turned out to be 8.85. Besides, the “BAF3-FGFR3 (MIN IL3) pIC50” value in assay [3] is around 8.40. The “BAF3-FGFR4 pIC50” value in assay [5] was 8.02.
For the molecule `COc1cc(OC)c(F)c(N(Cc2nc[nH]n2)c2ccc3ncc(-c4cnn(C)c4)nc3n2)c1` [Compound 86], the IC50 at FGFR1 (h) (setting [6]) was 1.26 nM; at FGFR3 (h) (setting [6]) it was 1 nM; at KDR (h) (setting [6]), 7.59 nM; in assay [2], above 10000 nM; in assay [4] it was above 10000 nM. At FGFR4 (h) (setting [6]), this molecule showed a negative logarithm of the IC50 (pIC50) of 8.95. Further, the “BAF3-FGFR1 (MIN IL3) pIC50” value in assay [1] amounted to 7.74. Also, in assay [3], the “BAF3-FGFR3 (MIN IL3) pIC50” value is listed as around 7.90. In addition, the “BAF3-FGFR4 pIC50” value in assay [5] worked out at 7.33.
On to `COc1cc(OC)c(F)c(N(CC2CCCCO2)c2ccc3ncc(-c4cnn(C)c4)nc3n2)c1` (stereo not drawn) [Compound 139], for which the IC50 was 3.16 nM on FGFR1 (h); 2.75 nM at FGFR3 (h); 28.8 nM at KDR (h); above 10000 nM in assay [2]; above 10000 nM in assay [4]. On FGFR4 (h), this molecule showed a pIC50 of 8.38. Further, the “BAF3-FGFR1 (MIN IL3) pIC50” value in assay [1] came to 7.40. Moreover, the “BAF3-FGFR3 (MIN IL3) pIC50” value in [3] turned out to be 7.38. Moreover, in assay [5], the “BAF3-FGFR4 pIC50” value is listed as 6.61.
